pIC50: −log10 of the molar value.

In one experiment the test system is NF-κB. Put plainly: NF-κB assay: THP1-NF-κB-LUC cells, LPS-stimulated secreted luciferase. The format is cell-based. As to conditions: THP1-NF-κB-LUC cells, LPS-stimulated; read-out: IC50 (NF-κB assay). In a few lines:
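THP1-NF-κB-LUC cells (25k/well) were pretreated with compounds for 2 h, then stimulated with LPS (10 ng/mL) for 18 h. Secreted luciferase was measured and normalized to vehicle, and IC50 was fitted from the concentration series.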
As usually defined, the pIC50 is the IC50 on a negative log10 scale, so that one unit is a factor of ten. On to `O=C(NCc1ccccc1)c1ccc2nc(-c3ccccc3)c(-c3ccccc3)nc2c1` [BC18475], for which the pIC50 was less than 5.00.
On the same count and under the same terms, then `Cc1ccc(-c2nc(S(=O)(=O)c3ccc(Cl)cc3)c(SCC(C)C)o2)cc1` [BC18580], with less than 5.00; and `CCN(CC)CCCNC(=O)c1ccc2nc(-c3ccc(F)cc3)c(-c3ccc(F)cc3)nc2c1` [BC18469], with more than 7.00; and `CCN(CC)C(=O)c1ccc2nc(-c3ccccc3)c(-c3ccccc3)nc2c1` [BC18400], with more than 7.00.
With `CCOc1ccc(-c2nc3ccc(C(=O)NCCN(C)Cc4ccccc4)cc3nc2-c2ccc(OCC)cc2)cc1` [BC18488], the pIC50 was 5.00 to 6.00.
On to `COCCNC(=O)c1ccc2nc(-c3ccccc3)c(-c3ccccc3)nc2c1` [BC18422], for which the pIC50 was more than 7.00.
Turning to `C=CCN(CC=C)C(=O)c1ccc2nc(-c3ccccc3)c(-c3ccccc3)nc2c1` [BC18423], the pIC50 was more than 7.00.
For the compound `O=S(=O)(c1ccccc1)c1nc(-c2ccc(F)cc2)oc1SCc1ccc(F)cc1` [BC18581], the pIC50 was 5.00 to 6.00.
With `CC(C)CSc1oc(-c2ccccc2)nc1S(=O)(=O)c1ccc(F)cc1` [BC18578], the pIC50 was 5.00 to 6.00.
The same measure, in the same setting: in the case of `O=C(c1ccc2nc(-c3ccccc3)c(-c3ccccc3)nc2c1)N1CCN(c2ccccc2)CC1` [BC18412] it was 5.00 to 6.00; in that of `CC(C)Sc1oc(-c2ccc(F)cc2)nc1S(=O)(=O)c1ccc(Cl)cc1` [BC18507], 5.00 to 6.00.
Regarding `Cc1ccc(-c2nc3ccc(C(=O)NCc4ccccc4)cc3nc2-c2ccc(C)cc2)cc1` [BC18444], the pIC50 was less than 5.00.
Still for that read-out and setting: in the case of `CCCCCSc1oc(-c2ccc(F)cc2)nc1S(=O)(=O)c1ccc(F)cc1` [BC18540] it was less than 5.00; in that of `O=C(NCCc1ccccc1)c1ccc2nc(-c3ccc(F)cc3)c(-c3ccc(F)cc3)nc2c1` [BC18435], 6.00 to 7.00; in that of `CCCCSc1oc(-c2ccc(F)cc2)nc1S(=O)(=O)c1ccc(C)cc1` [BC18505], 5.00 to 6.00.
Same read-out and setting: then `CN1CCN(C(=O)c2ccc3nc(-c4ccc(F)cc4)c(-c4ccc(F)cc4)nc3c2)CC1` [BC18482], with more than 7.00; and `CCCS(=O)(=O)c1oc(-c2ccc(F)cc2)nc1S(=O)(=O)c1ccc(F)cc1` [BC18543], with more than 7.00; and `O=C(NCCN1CCCC1)c1ccc2nc(-c3ccc(F)cc3)c(-c3ccc(F)cc3)nc2c1` [BC18449], with more than 7.00.
On the same count and under the same terms, in the case of `CC(C)OCCCNC(=O)c1ccc2nc(-c3ccc(F)cc3)c(-c3ccc(F)cc3)nc2c1` [BC18416] it was more than 7.00.
Take `CCOC(=O)N1CCN(C(=O)c2ccc3nc(-c4ccccc4)c(-c4ccccc4)nc3c2)CC1` [BC18487]: the pIC50 was more than 7.00.
Turning to `O=C(NC1CCCCC1)c1ccc2nc(-c3ccc(F)cc3)c(-c3ccc(F)cc3)nc2c1` [BC18431], the pIC50 was 6.00 to 7.00.
The same measure, in the same setting: in the case of `CCN(CC)CCCNC(=O)c1ccc2nc(-c3ccccc3)c(-c3ccccc3)nc2c1` [BC18417] it was more than 7.00; in that of `Cc1ccc(S(=O)(=O)c2nc(-c3ccc(F)cc3)oc2S(=O)(=O)C(C)C)cc1` [BC18586], more than 7.00.
Still for that read-out and setting: in the case of `Cc1ccc(-c2nc3ccc(C(=O)NCc4ccc(F)cc4)cc3nc2-c2ccc(C)cc2)cc1` [BC18466] it was less than 5.00; in that of `Cc1ccc(S(=O)(=O)c2nc(-c3ccc(F)cc3)oc2SCC(C)C)cc1` [BC18529], 5.00 to 6.00.
For the compound `Cc1ccc(-c2nc(S(=O)(=O)c3ccc(Cl)cc3)c(SC(C)C)o2)cc1` [BC18569], the pIC50 is 5.00 to 6.00.
As to `CCC(C)S(=O)(=O)c1oc(-c2ccc(F)cc2)nc1S(=O)(=O)c1ccc(C)cc1` (centres unmarked) [BC18521], the pIC50 is more than 7.00.
The same measure, in the same setting: in the case of `CCC1CCN(CCNC(=O)c2ccc3nc(-c4ccccc4)c(-c4ccccc4)nc3c2)CC1` [BC18406] it was more than 7.00; in that of `CC(C)NC(=O)c1ccc2nc(-c3ccccc3)c(-c3ccccc3)nc2c1` [BC18443], more than 7.00.
The same measure, in the same setting: in the case of `O=S(=O)(c1ccccc1)c1nc(-c2ccc(F)cc2)oc1SCc1ccccc1F` [BC18504] it was 5.00 to 6.00; in that of `CCCCSc1oc(-c2ccccc2)nc1S(=O)(=O)c1ccc(Cl)cc1` [BC18557], 5.00 to 6.00.
As to `O=S(=O)(Cc1ccccc1F)c1oc(-c2ccc(F)cc2)nc1S(=O)(=O)c1ccccc1` [BC18564], the pIC50 is more than 7.00.
On the same count and under the same terms, in the case of `Cc1ccc(CNC(=O)c2ccc3nc(-c4ccccc4)c(-c4ccccc4)nc3c2)cc1` [BC18486] it was less than 5.00.
Consider `O=C(CSc1oc(-c2ccc(F)cc2)nc1S(=O)(=O)c1ccc(Cl)cc1)c1ccc(F)cc1` [BC18530], for which the pIC50 was 5.00 to 6.00.
On the same count and under the same terms, then `O=C(NCCN1CCCCC1)c1ccc2nc(-c3ccc(F)cc3)c(-c3ccc(F)cc3)nc2c1` [BC18456], with more than 7.00; and `CCC(C)Sc1oc(-c2ccccc2)nc1S(=O)(=O)c1ccc(Cl)cc1` (centres unmarked) [BC18568], with 5.00 to 6.00; and `Cc1cccc(-c2nc3ccc(C(=O)NCc4ccccc4)cc3nc2-c2cccc(C)c2)c1` [BC18446], with less than 5.00.
The same measure, in the same setting: in the case of `O=C(NCCCN1CCCC1)c1ccc2nc(-c3ccc(F)cc3)c(-c3ccc(F)cc3)nc2c1` [BC18438] it was more than 7.00; in that of `Cc1ccc(S(=O)(=O)c2nc(-c3ccccc3)oc2S(=O)(=O)c2ccc(C)cc2)cc1` [BC18500], more than 7.00; in that of `CCCSc1oc(-c2ccc(F)cc2)nc1S(=O)(=O)c1ccc(F)cc1` [BC18572], less than 5.00.

Still in this experiment, the particulars now being: THP1-NF-κB-LUC cells; compounds 2 hours before LPS (10 ng/mL) for 18 hours; secreted luciferase; read-out: IC50 (NF-κB assay).
Regarding `Cc1ccc(S(=O)(=O)c2c[nH]c3cc(Cl)ccc3c2=O)cc1F` [BC18302], the pIC50 was more than 7.00.
Still for that read-out and setting: then `CC(=O)N1CCOc2cc(S(=O)(=O)Nc3ccc(C)c(F)c3)c(C)cc21` [BC181383], with 6.00 to 7.00; and `Cc1cccc(N(C)S(=O)(=O)c2cc3c(cc2C)NC(=O)CO3)c1` [BC181359], with less than 5.00.
The same measure, in the same setting: then `O=c1c(S(=O)(=O)c2ccc(F)c(F)c2)c[nH]c2c(F)ccc(Cl)c12` [BC18340], with more than 7.00; and `Cc1cc2c(cc1S(=O)(=O)Nc1ccc(F)cc1F)OCCN2C` [BC181341], with 5.00 to 6.00; and `Cc1ccc(C)c(NS(=O)(=O)c2cc3c(cc2C)NC(=O)CO3)c1` [BC181335], with less than 5.00.
With `COc1ccc(NS(=O)(=O)c2cc3c(cc2C)NC(=O)CO3)c(OC)c1` [BC181376], the pIC50 was less than 5.00.
Same read-out and setting: then `COc1ccc(OC)c(N(C)S(=O)(=O)c2cc3c(cc2C)NC(=O)CO3)c1` [BC181360], with less than 5.00; and `CCN(CC)c1ccc(NS(=O)(=O)c2cc3c(cc2C)NC(=O)CO3)c(C)c1` [BC181348], with less than 5.00.
Same read-out and setting: in the case of `Cc1ccc(NS(=O)(=O)c2cc3c(cc2C)NC(=O)CO3)c(C)c1` [BC181346] it was less than 5.00; in that of `COc1ccc(NS(=O)(=O)c2cc3c(cc2C)NC(=O)CO3)cc1OC` [BC181322], less than 5.00.
Same read-out and setting: then `Cc1ccc(S(=O)(=O)c2cc3cc(Br)ccc3oc2=O)cc1Cl` [BC18314], with less than 5.00; and `COc1cc2c(=O)c(S(=O)(=O)c3ccc(Cl)cc3)cn(Cc3ccccc3F)c2cc1OC` [BC18333], with less than 5.00.
Consider `CCc1cccc(CC)c1NS(=O)(=O)c1cc2c(cc1C)NC(=O)CO2` [BC181325], for which the pIC50 is less than 5.00.
On the same count and under the same terms, then `Cc1cc2c(cc1S(=O)(=O)Nc1ccc(F)c(Cl)c1)OCC(=O)N2` [BC181331], with more than 7.00.
Same read-out and setting: in the case of `Cc1cc2c(cc1S(=O)(=O)Nc1ccc(Cl)cc1)OCCN2C` [BC181330] it was 5.00 to 6.00; in that of `Cc1cc2c(cc1S(=O)(=O)Nc1cccc(F)c1)OCCN2C` [BC181363], less than 5.00.
The same measure, in the same setting: then `N#Cc1ccc2[nH]cc(S(=O)(=O)c3cc(Cl)cc(Cl)c3)c(=O)c2c1` [BC18305], with 6.00 to 7.00; and `CCNS(=O)(=O)c1cc2c(cc1C)NC(=O)CO2` [BC181332], with less than 5.00.
On to `CCOc1ccc(NS(=O)(=O)c2cc3c(cc2C)N(C)CCO3)cc1` [BC181374], for which the pIC50 is less than 5.00.
Still for that read-out and setting: in the case of `Cc1cc(C)cc(NS(=O)(=O)c2cc3c(cc2C)NC(=O)CO3)c1` [BC181378] it was 5.00 to 6.00.
Still for that read-out and setting: in the case of `Cc1ccc2[nH]cc(S(=O)(=O)c3ccc(C#N)cc3)c(=O)c2c1` [BC18311] it was less than 5.00.
On the same count and under the same terms, then `Cc1cc2c(cc1S(=O)(=O)Nc1ccccc1Cl)OCC(=O)N2` [BC181380], with 6.00 to 7.00.
As to `COc1ccc(OC)c(NS(=O)(=O)c2cc3c(cc2C)NC(=O)CO3)c1` [BC181357], the pIC50 was less than 5.00.
On the same count and under the same terms, in the case of `COc1cc(NS(=O)(=O)c2cc3c(cc2C)NC(=O)CO3)cc(OC)c1` [BC181301] it was less than 5.00; in that of `COc1ccc(C)cc1NS(=O)(=O)c1cc2c(cc1C)NC(=O)CO2` [BC181326], less than 5.00.
Still for that read-out and setting: in the case of `COc1ccc(S(=O)(=O)c2cn(CC(=O)Nc3ccc(Cl)cc3)c3ccc(C)cc3c2=O)cc1` [BC18334] it was less than 5.00; in that of `COc1ccc(NS(=O)(=O)c2cc3c(cc2C)NC(=O)CO3)cc1Cl` [BC181369], 5.00 to 6.00.
On the same count and under the same terms, then `COc1ccc(N(C)S(=O)(=O)c2cc3c(cc2C)NC(=O)CO3)c(OC)c1` [BC181327], with less than 5.00; and `Cc1ccc(NS(=O)(=O)c2cc3c(cc2C)NC(=O)CO3)cc1Cl` [BC181305], with more than 7.00; and `COc1ccc(S(=O)(=O)c2cn(CC(=O)Nc3ccc(C)cc3)c3ccc(Cl)cc3c2=O)cc1` [BC18329], with less than 5.00.
`Cc1cc2c(cc1S(=O)(=O)Nc1cccc(C)c1C)OCC(=O)N2` [BC181312]: the pIC50 is 5.00 to 6.00.
For `N#Cc1ccc(S(=O)(=O)c2c[nH]c3ccc(F)cc3c2=O)cc1` [BC18306], the pIC50 was less than 5.00.
As to `CCCCn1cc(S(=O)(=O)c2ccc(C)cc2)c(=O)c2cc(Cl)ccc21` [BC18336], the pIC50 was less than 5.00.
On the same count and under the same terms, in the case of `CCc1ccc(S(=O)(=O)c2c[nH]c3cc(F)c(F)cc3c2=O)cc1` [BC18320] it was more than 7.00; in that of `Cc1cc2c(cc1S(=O)(=O)Nc1ccc(F)cc1Cl)OCC(=O)N2` [BC181375], 6.00 to 7.00.

Staying with this experiment, now noted: read-out: IC50 (NF-κB assay).
Turning to `CC(=O)N1CCOc2cc(S(=O)(=O)Nc3ccccc3C)c(C)cc21` [BC181351], the pIC50 was less than 5.00.

The values above are taken from patent US12606528B2, “Methods and materials for inhibiting NF-kB activity” (University of Pittsburgh - Of the Commonwealth System of …, priority 2019, dated 2026).
